Experimental data reported in patent US20220186188A1, “Method for Obtaining Pancreatic Progenitor Cells and Pancreatic Islet Beta Cells By Means of Differentiation of Human Pluripotent Stem Cells” (Asia Regenerative Medicine, Ltd., priority 2019, published 2022).

How the values were obtained:
[1] = test system: pancreatic progenitor cells and pancreatic islet β cells differentiated from human embryonic stem cells; experiment: Real-time fluorescence quantitative PCR of PDX1, NKX6-1 and INS mRNA (human embryonic stem cells); format: cell-based; details: qPCR
Protocol: a pancreatic progenitor cell medium was prepared, the medium in step 1) was replaced with the pancreatic progenitor cell medium, and the cells were cultured in a carbon dioxide incubator at 37 degrees Celsius for 5 days, during which the medium was replaced every day, wherein the composition of the pancreatic progenitor cell medium was: with an MCDB131 medium as a basic medium, and the following components at the working concentrations were further included: 0.5% of bovine serum albumin (BSA), 1.5 g/L of sodium bicarbonate, 1×glutamine (GlutaMAX), 10 mM glucose, 0.25 M vitamin C, 1×insulin-transferrin-selenium-ethanolamine additive (ITS-X), 50 ng/ml of fibroblast growth factor 7 (KGF), 0.5 μM SANT1 (with smo as an inhibitor target), 100 nM retinoic acid (TTNPB), 500 nM phorbol 12,13-dibutyrate (PDBu), 2 μM ALK inhibitor (K02288), and 2 μM WNT signaling pathway inhibitor XAV-939 (not added in a control group), with the concentrations all being final concentrations.
b. pancreatic islet β cell medium 2 was prepared, the pancreatic islet β cell medium 1 in above-mentioned step a was replaced with the pancreatic islet β cell medium 2, and the cells were cultured in a carbon dioxide incubator at 37 degrees Celsius for 5 days, during which the medium was replaced every day, wherein the composition of the pancreatic islet β cell medium 1 was: with an MCDB131 medium as a basic medium, and the following components at the working concentrations were further included: 20 mM glucose, 2% of bovine serum albumin (BSA), 1.5 g/L of sodium bicarbonate, 1×glutamine (GlutaMAX), 0.05 mM vitamin C, 1×insulin-transferrin-selenium-ethanolamine additive (ITS-X), 2 μM ALK inhibitor (K02288), 1 μM triiodothyronine (T3), 10 μM YO-01027 (Notch signaling pathway inhibitor), and 10 μM zinc sulfate, with the concentrations all being final concentrations; and the composition of the pancreatic islet β cell medium 2 was: with an MCDB131 medium as a basic medium, and the following components at the working concentrations were further included: 20 mM glucose, 2% of bovine serum albumin (BSA), 1.5 g/L of sodium bicarbonate, 1×glutamine (GlutaMAX), 0.05 mM vitamin C, 1×insulin-transferrin-selenium-ethanolamine additive (ITS-X), 1 μM triiodothyronine (T3), 10 μM Repsox (ALK5 inhibitor), 10 μM vitamin E, 10 μg/ml of heparin sodium, 2 μM R428 (Axl inhibitor), 10 μM zinc sulfate, and 10 mM N-acetyl-L-cysteine (N-cys), with the concentrations all being final concentrations.
Cells cultured in a 24-well plate were collected, and washed twice with 500 μl of DPBS at first, then covered with 200 μl of chymotrypsin-trypsin (Trypsin), and placed at 37° C. for 5 minutes of digestion. Whether the cells float in pieces was observed, and the digestion was terminated using 500 μl of DMEM/F12 medium, then the product was centrifuged at 1000 rpm for 3 minutes, the supernatant was removed, and cell pellets were collected and added to a new RNase-free centrifuge tube. […]

[2] = test system: pancreatic progenitor cells and pancreatic islet β cells differentiated from human induced pluripotent stem cells; experiment: Immunofluorescence detection of PDX1 and PDX1/INS proteins (human induced pluripotent stem cells); format: cell-based
Description: […]

[3] = 2 μM inhibitor in pancreatic progenitor cell stage, GAPDH reference
[4] = 2 μM inhibitor in pancreatic progenitor cell stage

Oc1nc(-c2ccc(C(F)(F)F)cc2)nc2c1CSCC2 [XAV-939]
transcription level of the insulin gene INS in the mature pancreatic islet β cell stage ([1]; 2 μM inhibitor added in pancreatic progenitor cell stage): greatly increased | relative expression of mRNA of NKX6-1 in pancreatic progenitor cells [1, 3]: significantly increased | relative expression of mRNA of PDX1 in pancreatic progenitor cells [1, 3]: significantly increased | number of insulin INS-positive and PDX1-co-stained pancreatic islet β cells in the mature pancreatic islet β cell stage ([2]; 2 μM inhibitor added in pancreatic progenitor cell stage, immunofluorescence): significantly increased | PDX1-positive pancreatic progenitor cells (immunofluorescence) [2, 4]: significantly increased | cell growth (total cell number by DAPI) [2, 4]: did not affect the cell growth
